Patent US10611760B2, “Therapeutic compounds as inhibitors of the orexin-1 receptor” (C4X Discovery Limited, priority 2014, dated 2020)

Assays:
Format in all cases: cell-based
hOX2R [1] = target: T1, hOX2R (Homo sapiens, UniProt O43614); assay: Intracellular calcium measurements using stable-replicating cells, Method A, OX2; settings: orexin-A at 4×EC50, * = single experiment, read-out: pIC50 OX2 (converted)
T1 sequence (O43614 1-444): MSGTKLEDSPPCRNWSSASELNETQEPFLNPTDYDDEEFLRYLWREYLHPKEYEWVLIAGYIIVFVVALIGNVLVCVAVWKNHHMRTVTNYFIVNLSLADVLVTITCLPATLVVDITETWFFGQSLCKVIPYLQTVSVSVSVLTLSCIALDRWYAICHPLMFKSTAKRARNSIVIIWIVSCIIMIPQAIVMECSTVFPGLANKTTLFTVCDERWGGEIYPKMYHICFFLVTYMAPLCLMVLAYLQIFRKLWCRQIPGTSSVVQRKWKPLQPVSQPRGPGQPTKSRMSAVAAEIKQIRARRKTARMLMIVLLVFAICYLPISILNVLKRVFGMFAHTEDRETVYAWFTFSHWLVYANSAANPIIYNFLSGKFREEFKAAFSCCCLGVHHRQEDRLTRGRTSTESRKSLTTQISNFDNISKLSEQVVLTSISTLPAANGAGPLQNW
Description: (§1) Intracellular Calcium Measurements Using Stable-replicating Cells:
(§2) Method A (Table 2): Test compounds are prepared as 10 mM stock solutions in DMSO, warmed briefly for 20 seconds at 37° C. and serially diluted in half log concentrations with DMSO followed by dilution with assay buffer (HBSS (Sigma-Aldrich, H8264) containing 10 mM HEPES (Invitrogen, 15630080) and pH adjusted to 7.4) to a top final assay concentration of 10 μM.
(§3) Human OX1 (CT-A674) and human OX2 (CT-A675) receptor-expressing stable-replicating cells are grown in a culture medium, Ham F12 (Invitrogen, 31765-035) containing 10% fetal bovine serum (Invitrogen, 16000044), 1% non-essential amino acids (Invitrogen, 11140-050), 100 U/mL Penicillin/Streptomycin (Invitrogen, 15140-122) and G418 (Invitrogen, 11811023) at a concentration of 400 μg/mL. The cells are seeded at a density of 7,000 cells/well into black, clear bottom 384-well plates (Corning, 3683) and incubated at 37° C. in air supplemented with 5% CO2 for 16 hrs.
(§4) Loading dye (25 μL/well), prepared from a FLIPR Calcium 6 Assay kit (Molecular Devices, R8190-Explorer) according to the manufacturer's instructions, and the serially diluted test compounds (10 μL/well) are added to the plate. The plate is then incubated for 30 mins at 37° C. in 5% CO2, then for 30 mins at ambient temperature and placed into a FlexStation III reader.

hOX2R [2] = target: T1, hOX2R; assay: Intracellular calcium measurements using division-arrested cells, OX2; settings: agonist orexin B at 2×EC50, * = single experiment, otherwise average of at least two, read-out: pIC50 OX2 (converted)
Outline: (§5)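 Division-arrested cells expressing human OX1 or OX2 were seeded for 16 h, then loaded with Calcium 5 dye plus probenecid for 1 h at 37 °C. Compounds in HEPES-buffered HBSS with 0.1% BSA, pH 7.4, top final concentration 10 μM, were added 10 min before the FlexStation calcium read.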

hOX1R [3] = target: T2, hOX1R (Homo sapiens, UniProt O43613); assay: Intracellular calcium measurements using division-arrested cells, OX1; settings: agonist orexin A at 2×EC50, * = single experiment, otherwise average of at least two, read-out: pIC50 OX1 (converted)
T2 sequence (O43613 1-425): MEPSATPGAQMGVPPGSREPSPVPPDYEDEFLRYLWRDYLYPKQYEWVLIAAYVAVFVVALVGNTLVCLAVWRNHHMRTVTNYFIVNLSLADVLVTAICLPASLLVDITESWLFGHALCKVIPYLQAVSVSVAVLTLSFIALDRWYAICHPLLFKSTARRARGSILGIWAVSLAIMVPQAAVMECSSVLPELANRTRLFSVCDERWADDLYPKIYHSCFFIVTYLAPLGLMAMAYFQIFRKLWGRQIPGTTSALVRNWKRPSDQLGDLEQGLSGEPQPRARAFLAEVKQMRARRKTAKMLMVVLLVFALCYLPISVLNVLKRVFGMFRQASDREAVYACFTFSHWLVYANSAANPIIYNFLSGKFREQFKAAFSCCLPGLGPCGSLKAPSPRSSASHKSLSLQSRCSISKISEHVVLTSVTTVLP
Outline: as §5

hOX1R [4] = target: T2, hOX1R; assay: Intracellular calcium measurements using stable-replicating cells, Method A, OX1; settings: orexin-A at 4×EC50, * = single experiment, read-out: pIC50 OX1 (converted)
Description: as §1, §2, §3, §4

hOX2R [5] = target: T1, hOX2R; assay: Intracellular calcium measurements using stable-replicating cells, Method B (CHO cells, FLIPR Tetra), OX2; settings: orexin A at EC75, read-out: pIC50 OX2 (converted)
Description: as §1
(§6) Human OX1 or human OX2 receptor expressing CHO cells are plated into 384 well black, clear bottom, CellBIND plates at a seeding density of 10,000 cells/75 μL growth media. The seeded plates are incubated at 37° C. in air supplemented with 5% CO2 overnight.
(§7) The next day media is removed and replaced with 30 μL/well of cell loading buffer (a vial of Calcium 5 is solubilized in 20 mL of assay buffer) and the cells incubated for 1 hr at 37° C. The serially diluted test compounds (10 μL/well) are added to the cell plate by the FLIPR Tetra and the addition is monitored for 5 mins by the instrument. The cell plate is then removed and incubated for additional 25 mins in a humidified incubator at […] prior to being placed back into the FLIPR Tetra. Finally 10 μL of orexin A in assay buffer +0.1% (w/v) bovine serum albumin is dispensed by the FLIPR Tetra at an EC75 concentration determined for each assay run. Fluorescence is measured at excitation and emission wavelengths of 485 nm and 525 nm respectively and data analyzed using GraphPad Prism for the EC75 value of orexin A and Aplus to determine an IC50 value for each test compound.

hOX1R [6] = target: T2, hOX1R; assay: Intracellular calcium measurements using stable-replicating cells, Method B (CHO cells, FLIPR Tetra), OX1; settings: orexin A at EC75, read-out: pIC50 OX1 (converted)
Description: as §1, §6, §7

Row | Compound | IC50 (hOX2R [1]) | IC50 (hOX2R [2]) | IC50 (hOX1R [3]) | IC50 (hOX1R [4]) | IC50 (hOX2R [5]) | IC50 (hOX1R [6])
1 | CC[C@@H](CNc1ncc(C(F)(F)F)cn1)N(C)C(=O)c1cc(Cl)ccc1-n1nccn1 [Example 39, (S)-5-chloro-N-methyl-2-(2H-1,2,3-triazol-2-yl)-N-(1-((5-(trifluoromethyl)pyrimidin-2-yl)amino)butan-2-yl)benzamide] | > 10000 nM | 1000 nM | – | – | 1580 nM | –
2 | CC[C@@H](CNc1nc2ccccc2o1)N(C)C(=O)c1cc(Cl)ccc1-n1nccn1 [Example 43, (S)—N-(1-(benzo[d]oxazol-2-ylamino)butan-2-yl)-5-chloro-N-methyl-2-(2H-1,2,3-triazol-2-yl)benzamide] | 1000 nM | – | – | 10 nM | 794 nM | 0.794 nM
3 | CC[C@@H](CNc1ncc(Cl)cc1[N+](=O)[O-])N(C)C(=O)c1cc(Cl)ccc1-n1nccn1 [Example 45, (S)-5-chloro-N-(1-((5-chloro-3-nitropyridin-2-yl)amino)butan-2-yl)-N-methyl-2-(2H-1,2,3-triazol-2-yl)benzamide] | > 10000 nM | – | – | 126 nM | – | –
4 | CC[C@@H](CNc1ncc(Cl)cc1N)N(C)C(=O)c1cc(Cl)ccc1-n1nccn1 [Example 60, (S)—N-(1-((3-amino-5-chloropyridin-2-yl)amino)butan-2-yl)-5-chloro-N-methyl-2-(2H-1,2,3-triazol-2-yl)benzamide] | > 10000 nM | – | – | 39.8 nM | – | –
5 | CC[C@@H](CNc1ncc2ccccc2n1)N(C)C(=O)c1nc(C)ccc1-n1nccn1 [Example 61, (S)—N,6-dimethyl-N-(1-(quinazolin-2-ylamino)butan-2-yl)-3-(2H-1,2,3-triazol-2-yl)picolinamide] | 1580 nM | – | – | 3.98 nM | 3160 nM | 2.51 nM
6 | CC[C@@H](CNc1nc2ccccc2o1)N(C)C(=O)c1nc(C)ccc1-n1nccn1 [Example 62, (S)—N-(1-(benzo[d]oxazol-2-ylamino)butan-2-yl)-N,6-dimethyl-3-(2H-1,2,3-triazol-2-yl)picolinamide] | – | – | – | 5.01 nM | 2510 nM | 3.16 nM
7 | CC[C@@H](CNc1nc2cc(Cl)ccc2o1)N(C)C(=O)c1nc(C)ccc1-n1nccn1 [Example 64, (S)—N-(1-((5-chlorobenzo[d]oxazol-2-yl)amino)butan-2-yl)-N,6-dimethyl-3-(2H-1,2,3-triazol-2-yl)picolinamide] | 2510 nM | – | – | 5.01 nM | – | –
8 | CC[C@@H](CNc1ncc(C(F)(F)F)cn1)N(C)C(=O)c1nc(C)cc2ccccc12 [Example 78, (S)—N,3-dimethyl-N-(1-((5-(trifluoromethyl)pyrimidin-2-yl)amino)butan-2-yl)isoquinoline-1-carboxamide] | 1000 nM | – | – | 25.1 nM | – | 15.8 nM
9 | CC[C@@H](CNc1ncc(C(F)(F)F)cn1)N(C)C(=O)c1nccc2ccccc12 [Example 85, (S)—N-methyl-N-(1-((5-(trifluoromethyl)pyrimidin-2-yl)amino)butan-2-yl)isoquinoline-1-carboxamide] | 3160 nM | – | – | 50.1 nM | – | 100 nM
10 | Cc1ccc(-n2nccn2)c(C(=O)N(C)[C@H](CNc2ncc(C(F)(F)F)cn2)CC(F)(F)F)n1 [Example 88, (S)—N,6-dimethyl-3-(2H-1,2,3-triazol-2-yl)-N-(4,4,4-trifluoro-1-((5-(trifluoromethyl)pyrimidin-2-yl)amino)butan-2-yl)picolinamide] | > 10000 nM | – | – | 39.8 nM | – | 10 nM

More lines, now with the values ahead:

Row | IC50 (hOX2R [1]) | IC50 (hOX2R [2]) | IC50 (hOX1R [3]) | IC50 (hOX1R [4]) | IC50 (hOX2R [5]) | IC50 (hOX1R [6]) | Compound
11 | 1260 nM | 1000 nM | – | – | – | – | CC[C@@H](CNc1ccc(Cl)cn1)N(C)C(=O)c1cc(C)ccc1-n1nccn1 [Example 1, (S)—N-(1-((5-chloropyridin-2-yl)amino)butan-2-yl)-N,5-dimethyl-2-(2H-1,2,3-triazol-2-yl)benzamide]
12 | > 10000 nM | > 10000 nM | 501 nM | 3160 nM | – | – | Cc1nc(-c2ccccc2)c(C(=O)N[C@H](CNc2ccc(Cl)cn2)C(C)C)s1 [Example 6, (S)—N-(1-((5-chloropyridin-2-yl)amino)-3-methylbutan-2-yl)-2-methyl-4-phenylthiazole-5-carboxamide]
13 | > 10000 nM | > 10000 nM | 251 nM | 2000 nM | – | – | Cc1nc(-c2ccccc2)c(C(=O)N(C)[C@H](CNc2ccc(Cl)cn2)CC(C)C)s1 [Example 9, (S)—N-(1-((5-chloropyridin-2-yl)amino)-4-methylpentan-2-yl)-N,2-dimethyl-4-phenylthiazole-5-carboxamide]
14 | – | – | – | 7.94 nM | – | 1.58 nM | CC[C@@H](CNc1nc2ccccc2s1)N(C)C(=O)c1cc(Cl)ccc1-n1nccn1 [Example 44, (S)—N-(1-(benzo[d]thiazol-2-ylamino)butan-2-yl)-5-chloro-N-methyl-2-(2H-1,2,3-triazol-2-yl)benzamide]
15 | 1260 nM | – | – | 1.58 nM | 501 nM | 1.58 nM | CC[C@@H](CNc1nc2ccccc2s1)N(C)C(=O)c1nc(C)ccc1-n1nccn1 [Example 63, (S)—N-(1-(benzo[d]thiazol-2-ylamino)butan-2-yl)-N,6-dimethyl-3-(2H-1,2,3-triazol-2-yl)picolinamide]
16 | 2000 nM | – | – | 6.31 nM | 2510 nM | 1.26 nM | CC[C@@H](CNc1ccc2ccccc2n1)N(C)C(=O)c1nc(C)ccc1-n1nccn1 [Example 75, (S)—N,6-dimethyl-N-(1-(quinolin-2-ylamino)butan-2-yl)-3-(2H-1,2,3-triazol-2-yl)picolinamide]
17 | 1260 nM | – | – | 7.94 nM | 501 nM | 0.794 nM | CC[C@@H](CNc1ccc2ccccc2n1)N(C)C(=O)c1cc(Cl)ccc1-n1nccn1 [Example 77, (S)-5-chloro-N-methyl-N-(1-(quinolin-2-ylamino)butan-2-yl)-2-(2H-1,2,3-triazol-2-yl)benzamide]
18 | 316 nM | – | – | 7.94 nM | – | – | CC[C@@H](CNc1ccc(Cl)cn1)N(C)C(=O)c1cc(C)c(C)cc1-n1nccn1 [Example 86, (S)—N-(1-((5-chloropyridin-2-yl)amino)butan-2-yl)-N,4,5-trimethyl-2-(2H-1,2,3-triazol-2-yl)benzamide]
